Results on three molecules are retold here after patent publication US5164188A, “Biodegradable ocular implants” (Visionex, Inc., priority 1989, dated 1992).

As usually defined, the IC50 is the concentration at which inhibition is half-maximal.

For data set [1] the following is noted: rabbit, in vivo.
The conditions of data set [2]: rabbit, in vivo. The source holds these as a separate data set.
Data set [3] can be described thus: in vivo. As to conditions: rabbit.
Data set [4] can be described thus: in vivo. As to conditions: rabbit. This is another data set of the same source.
A short description of data set [5]: MTX level in eye, microcapsules in pars plana (EMIT). The class given is in vivo, rabbit. The settings on record: for Drug level, LE PC: left eye, posterior chamber, microcapsule in one eye only.
Data set [6] in a line: MTX level in eye, plaque in pars plana (EMIT). The class given is in vivo, rabbit. The settings on record: for Drug level, LE PC: left eye, posterior chamber, plaque in one eye only.
Data set [7] concerns VX2 adenocarcinoma. As to conditions: in vitro; cited from earlier work.

Like-named read-outs stand apart in the source and are kept apart here.

For the molecule `C[C@]12CCC(=O)C=C1CC[C@@H]1[C@@H]2[C@@H](O)C[C@@]2(C)[C@H]1CC[C@]2(O)C(=O)CO` [Hydrocortisone, hydrocortisone], the “Drug level, RE PC” value in data set [1] (10080 min), in data set [1] (20160 min), in data set [1] (30240 min), in data set [1] (40320 min), in data set [1] (50400 min) and in data set [1] (60480 min) was 0 ng/mL throughout. Further, the “Drug level, RE PC” value in data set [2] (43200 min), in data set [2] (86400 min) and in data set [2] (129600 min) was 0 ng/mL each time. In data set [3], this molecule gave a concentration at 168 h of 1300 ng/mL. The concentration at 336 h in data set [3] was 2000 ng/mL. Also, the concentration at 504 h in data set [3] was 2400 ng/mL. This molecule also returned a concentration at 672 h in data set [3] of 1100 ng/mL. Moreover, the concentration at 840 h in data set [3] is 900 ng/mL. In data set [3], this molecule registered a concentration at 1008 h of 2000 ng/mL. This molecule also came in with a concentration at 720 h in data set [4] of 1300 ng/mL. Further, the concentration at 1440 h in data set [4] is 1900 ng/mL. Also, in data set [4], the concentration at 2160 h stood at 2300 ng/mL.

Turning to `CN(Cc1cnc2nc(N)nc(N)c2n1)c1ccc(C(=O)N[C@@H](CCC(=O)O)C(=O)O)cc1` [MTX, methotrexate], the “Drug level, LE PC” value in data set [5] (1 wk), in data set [5] (2 wks), in data set [5] (3 wks), in data set [5] (4 wks), in data set [5] (5 wks) and in data set [5] (6 wks) was 0 ng/mL each time. In addition, the “Drug level, LE PC” value in data set [6] (1 mo), in data set [6] (2 mos) and in data set [6] (3 mos) was 0 ng/mL each time. In addition, the concentration at 168 h in data set [5] (rabbit, posterior chamber of eye, right eye, 1 wk, microcapsule, read-out: Drug level, RE PC) amounted to 800 ng/mL. In data set [5] (rabbit, posterior chamber of eye, right eye, 2 wks, microcapsule, read-out: Drug level, RE PC), the concentration at 336 h was found to be 1200 ng/mL. The concentration at 504 h in data set [5] (rabbit, posterior chamber of eye, right eye, 3 wks, microcapsule, read-out: Drug level, RE PC) is 1400 ng/mL. Further, the concentration at 672 h in data set [5] (rabbit, posterior chamber of eye, right eye, 4 wks, microcapsule, read-out: Drug level, RE PC) was 700 ng/mL. For the same molecule, in data set [5] (rabbit, posterior chamber of eye, right eye, 5 wks, microcapsule, read-out: Drug level, RE PC), the concentration at 840 h came out at 1000 ng/mL. The concentration at 1008 h in data set [5] (rabbit, posterior chamber of eye, right eye, 6 wks, microcapsule, read-out: Drug level, RE PC) came to 900 ng/mL. The concentration at 720 h in data set [6] (rabbit, posterior chamber of eye, right eye, 1 mo, plaque, read-out: Drug level, RE PC) amounted to 1500 ng/mL. In addition, in data set [6] (rabbit, posterior chamber of eye, right eye, 2 mos, plaque, read-out: Drug level, RE PC), the concentration at 1440 h was 4000 ng/mL. In addition, the concentration at 2160 h in data set [6] (rabbit, posterior chamber of eye, right eye, 3 mos, plaque, read-out: Drug level, RE PC) came to 2000 ng/mL.

For `CC[C@]1(O)C[C@H]2CN(CCc3c([nH]c4ccccc34)[C@@](C(=O)OC)(c3cc4c(cc3OC)N(C=O)[C@H]3[C@@](O)(C(=O)OC)[C@H](OC(C)=O)[C@]5(CC)C=CCN6CC[C@]43[C@@H]65)C2)C1` [Vincristine], the 50% inhibitory concentration (IC50) in data set [7] is 2 to 3 ng/mL.
